Measurements reported in patent US20210395248A1, “INHIBITORS OF HUMAN IMMUNODEFICIENCY VIRUS REPLICATION” (ViiV HEALTHCARE UK (NO.5) LIMITED, priority 2018, published 2021).
pEC50: −log10 of the molar value.

Legend:
[1] = Compound cytotoxicity, XTT-based colorimetric assay; type: cell-based; conditions: human; uninfected MT2 cells, day 4, XTT; read-out: CC50
Experimental: Compound cytotoxicity and the corresponding CC50 values were determined using the same protocol as described in the antiviral assay except that uninfected cells were used. Cytotoxicity was assessed on day 4 in uninfected MT2 cells by using a XTT (2,3-bis [2-Methoxy-4-nitro-5-sulfophenyl]-2H-tetrazolium-5-carboxyanilide inner salt)-based colorimetric assay (Sigma-Aldrich, St Louis, Mo.).

[2] = system: recombinant NL4-3 virus (Renilla luciferase reporter) in MT-2 cells; test: HIV cell culture assay (antiviral activity, luciferase readout in infected MT-2 cells); type: cell-based; conditions: NL43
Experimental: HIV cell culture assay—MT-2 cells, 293T cells and the proviral DNA clone of NL4-3 virus were obtained from the NIH AIDS Research and Reference Reagent Program. MT-2 cells were propagated in RPMI 1640 media supplemented with 10% heat inactivated fetal bovine serum (FBS), […]. The 293T cells were propagated in DMEM media supplemented with 10% heat inactivated FBS, […]. A recombinant NL4-3 proviral clone, in which a section of the nef gene was replaced with the Renilla luciferase gene, was used to make the reference virus used in these studies. The recombinant virus was prepared through transfection of the recombinant NL4-3 proviral clone into 293T cells using Transit-293 Transfection Reagent from Mirus Bio LLC (Madison, Wis.). Supernatent was harvested after 2-3 days and the amount of virus present was titered in MT-2 cells using luciferase enzyme activity as a marker by measuring luciferase enzyme activity. Luciferase was quantitated using the EnduRen Live Cell Substrate from Promega (Madison, Wis.). Antiviral activities of compounds toward the recombinant virus were quantified by measuring luciferase activity in MT-2 cells infected for 4-5 days with the recombinant virus in the presence of serial dilutions of the compound.
The 50% effective concentration (EC50) was calculated by using the exponential form of the median effect equation where (Fa)=1/[1+(EC50/drug conc.)m] (Johnson V A, Byington RT. Infectivity Assay. In Techniques in HIV Research, ed. Aldovini A, Walker B D. 71-76. New York: Stockton Press. 1990). The 50% inhibitory concentration (EC50) was calculated by using the exponential form of the median effect equation where percent inhibition=1/[1+(EC50/drug concentration)m], where m is a parameter that reflects the slope of the concentration-response curve.

Cn1nc(NS(C)(=O)=O)c2c(Cl)ccc(-n3c([C@H](Cc4cc(F)cc(F)c4)NC(=O)Cn4nc(C(F)F)c5c4C(F)(F)[C@@H]4C[C@H]54)nc4nc(NCCC(C)(F)F)ccc4c3=O)c21 (atropisomer, axis not shown; (P)) [Example 25, N—((S)-1-((3P)-3-(4-chloro-1-methyl-3-(methylsulfonamido)-1H-indazol-7-yl)-7-((3,3-difluorobutyl)amino)-4-oxo-3,4-dihydropyrido[2,3-d]pyrimidin-2-yl)-2-(3,5-difluorophenyl)ethyl)-2-((3bS,4aR)-3-(difluoromethyl)-5,5-difluoro-3b,4,4a,5-tetrahydro-1H-cyclopropa[3,4]cyclopenta[1,2-c]pyrazol-1-yl)acetamide]
CC50 at 4 days [1]: > 100 nM
pEC50 [2]: 10.43

Cn1nc(NS(C)(=O)=O)c2c(Cl)ccc(-n3c([C@H](Cc4cc(F)cc(F)c4)NC(=O)Cn4nc(C(F)F)c5c4C(F)(F)[C@@H]4C[C@H]54)nc4nc(N5CC(C)(C)OC(C)(C)C5)ccc4c3=O)c21 (atropisomer, axis not shown; (P)) [Example 26, N—((S)-1-((3P)-3-(4-chloro-1-methyl-3-(methylsulfonamido)-1H-indazol-7-yl)-4-oxo-7-(2,2,6,6-tetramethylmorpholino)-3,4-dihydropyrido[2,3-d]pyrimidin-2-yl)-2-(3,5-difluorophenyl)ethyl)-2-((3bS,4aR)-3-(difluoromethyl)-5,5-difluoro-3b,4,4a,5-tetrahydro-1H-cyclopropa[3,4]cyclopenta[1,2-c]pyrazol-1-yl)acetamide]
CC50 at 4 days [1]: > 100 nM
pEC50 [2]: 10.64

Cn1nc(NS(C)(=O)=O)c2c(Cl)ccc(-n3c([C@H](Cc4cc(F)cc(F)c4)NC(=O)Cn4nc(C(F)F)c5c4C(F)(F)[C@@H]4C[C@H]54)nc4nc(N5CCOC(C)(C)C5)ccc4c3=O)c21 (atropisomer, axis not shown; (P)) [Example 29, N—((S)-1-((3P)-3-(4-chloro-1-methyl-3-(methylsulfonamido)-1H-indazol-7-yl)-7-(2,2-dimethylmorpholino)-4-oxo-3,4-dihydropyrido[2,3-d]pyrimidin-2-yl)-2-(3,5-difluorophenyl)ethyl)-2-((3bS,4aR)-3-(difluoromethyl)-5,5-difluoro-3b,4,4a,5-tetrahydro-1H-cyclopropa[3,4]cyclopenta[1,2-c]pyrazol-1-yl)acetamide]
CC50 at 4 days [1]: > 100 nM
pEC50 [2]: 10.46

CN(CCC(F)(F)F)c1ccc2c(=O)n(-c3ccc(Cl)c4c(NS(C)(=O)=O)nn(C)c34)c([C@H](Cc3cc(F)cc(F)c3)NC(=O)Cn3nc(C(F)F)c4c3C(F)(F)[C@@H]3C[C@H]43)nc2n1 (atropisomer, axis not shown; (P)) [Example 30, N—((S)-1-((3P)-3-(4-chloro-1-methyl-3-(methylsulfonamido)-1H-indazol-7-yl)-7-(methyl(3,3,3-trifluoropropyl)amino)-4-oxo-3,4-dihydropyrido[2,3-d]pyrimidin-2-yl)-2-(3,5-difluorophenyl)ethyl)-2-((3bS,4aR)-3-(difluoromethyl)-5,5-difluoro-3b,4,4a,5-tetrahydro-1H-cyclopropa[3,4]cyclopenta[1,2-c]pyrazol-1-yl)acetamide]
CC50 at 4 days [1]: > 100 nM
pEC50 [2]: 10.49

Cn1nc(NS(C)(=O)=O)c2c(Cl)ccc(-n3c([C@H](Cc4cc(F)cc(F)c4)NC(=O)Cn4nc(C(F)F)c5c4C(F)(F)[C@@H]4C[C@H]54)nc4nc(NCCCC(F)(F)F)ccc4c3=O)c21 (atropisomer, axis not shown; (P)) [Example 31, N—((S)-1-((3P)-3-(4-chloro-1-methyl-3-(methylsulfonamido)-1H-indazol-7-yl)-4-oxo-7-((4,4,4-trifluorobutyl)amino)-3,4-dihydropyrido[2,3-d]pyrimidin-2-yl)-2-(3,5-difluorophenyl)ethyl)-2-((3bS,4aR)-3-(difluoromethyl)-5,5-difluoro-3b,4,4a,5-tetrahydro-1H-cyclopropa[3,4]cyclopenta[1,2-c]pyrazol-1-yl)acetamide]
CC50 at 4 days [1]: > 100 nM
pEC50 [2]: 9.96

Cn1nc(NS(C)(=O)=O)c2c(Cl)ccc(-n3c([C@H](Cc4cc(F)cc(F)c4)NC(=O)Cn4nc(C(F)F)c5c4C(F)(F)[C@@H]4C[C@H]54)nc4nc(NCCC(F)(F)F)ccc4c3=O)c21 (atropisomer, axis not shown; (P)) [Example 32, N—((S)-1-((3P)-3-(4-chloro-1-methyl-3-(methylsulfonamido)-1H-indazol-7-yl)-4-oxo-7-((3,3,3-trifluoropropyl)amino)-3,4-dihydropyrido[2,3-d]pyrimidin-2-yl)-2-(3,5-difluorophenyl)ethyl)-2-((3bS,4aR)-3-(difluoromethyl)-5,5-difluoro-3b,4,4a,5-tetrahydro-1H-cyclopropa[3,4]cyclopenta[1,2-c]pyrazol-1-yl)acetamide]
CC50 at 4 days [1]: > 100 nM
pEC50 [2]: 10.38

Cn1nc(NS(C)(=O)=O)c2c(Cl)ccc(-n3c([C@H](Cc4cc(F)cc(F)c4)NC(=O)Cn4nc(C(F)F)c5c4C(F)(F)[C@@H]4C[C@H]54)nc4nc(NCCC(F)F)ccc4c3=O)c21 (atropisomer, axis not shown; (P)) [Example 34, N—((S)-1-((3P)-3-(4-chloro-1-methyl-3-(methylsulfonamido)-1H-indazol-7-yl)-7-((3,3-difluoropropyl)amino)-4-oxo-3,4-dihydropyrido[2,3-d]pyrimidin-2-yl)-2-(3,5-difluorophenyl)ethyl)-2-((3bS,4aR)-3-(difluoromethyl)-5,5-difluoro-3b,4,4a,5-tetrahydro-1H-cyclopropa[3,4]cyclopenta[1,2-c]pyrazol-1-yl)acetamide]
CC50 at 4 days [1]: > 100 nM
pEC50 [2]: 10.26

Cn1nc(NS(C)(=O)=O)c2c(Cl)ccc(-n3c([C@H](Cc4cc(F)cc(F)c4)NC(=O)Cn4nc(C(F)F)c5c4C(F)(F)[C@@H]4C[C@H]54)nc4nc(NCCCF)ccc4c3=O)c21 (atropisomer, axis not shown; (P)) [Example 35, N—((S)-1-((3P)-3-(4-chloro-1-methyl-3-(methylsulfonamido)-1H-indazol-7-yl)-7-((3-fluoropropyl)amino)-4-oxo-3,4-dihydropyrido[2,3-d]pyrimidin-2-yl)-2-(3,5-difluorophenyl)ethyl)-2-((3bS,4aR)-3-(difluoromethyl)-5,5-difluoro-3b,4,4a,5-tetrahydro-1H-cyclopropa[3,4]cyclopenta[1,2-c]pyrazol-1-yl)acetamide]
CC50 at 4 days [1]: > 100 nM
pEC50 [2]: 9.96

C[C@@H]1CN(c2ccc3c(=O)n(-c4ccc(Cl)c5c(NS(C)(=O)=O)nn(C)c45)c([C@H](Cc4cc(F)cc(F)c4)NC(=O)Cn4nc(C(F)F)c5c4C(F)(F)[C@@H]4C[C@H]54)nc3n2)C[C@H](C)O1 (atropisomer, axis not shown; (aR)) [Example 1, N—((S)-1-(3-(4-chloro-1-methyl-3-(methylsulfonamido)-1H-indazol-7-yl)-7-((2S,6R)-2,6-dimethylmorpholino)-4-oxo-3,4-dihydropyrido[2,3-d]pyrimidin-2-yl)-2-(3,5-difluorophenyl)ethyl)-2-((3bS,4aR)-3-(difluoromethyl)-5,5-difluoro-3b,4,4a,5-tetrahydro-1H-cyclopropa[3,4]cyclopenta[1,2-c]pyrazol-1-yl)acetamide]
CC50 at 4 days [1]: > 500 nM
pEC50 [2]: 10.39
